The test has as its target T1, β-glucuronidase Type VII-A derived from Escherichia coli (Escherichia coli, UniProt P05804).
T1 construct: purchased Sigma-Aldrich Corporation
Description: Inhibition of β-glucuronidase activity (PNPG substrate, absorbance at 400 nm). The class given is biochemical. To be noted: for Inhibition rate (%) Concentration 0.001%: 0.001 wt % in reaction solution. On the procedure: 100 μL of a 2 mM PNPG aqueous solution, 40 μL of a 0.5 M phosphate buffer (pH 6.8), 38 μL of ion exchanged water and 2 μL of a 10 or 1 wt % dipropylene glycol (DPG) solution of various compounds or plant extracts were mixed in a bottle γ-ray sterilized in advance, and subsequently 20 μL of a β-glucuronidase aqueous solution adjusted to 16 units/mL was added, in order to allow the enzyme to react in a thermostat bath at 37° C. for 2 hours. Further, in the case of some of compounds, in addition to the above steps, the same experiment was performed using a 0.1 wt % DPG solution as well. As a result, the concentrations of the test compounds and plant extracts in the reaction solution were adjusted to 0.1, 0.01 and 0.001 wt %, respectively. Further, a product prepared by adding DPG in place of the above-mentioned compounds and plant extracts was used as a control, and a product prepared by adding ion exchanged water in place of an enzyme solution was used as a blank for each sample and control, and the respective products were allowed to react for 2 hours in the same manner. It should be noted that the plant extract sample was used as a solvent extract.
The above-mentioned reaction solution was diluted with a 0.2 M glycine buffer (pH 10.4) and measured for its absorbance at a wavelength of 400 nm. The relative activity inhibition rate of a β-glucuronidase was determined by using the obtained measurement value in accordance with the following equation. Absorbance change of control=Absorbance of control−Absorbance of blank for each control Absorbance change of sample=Absorbance of sample−Absorbance of blank for each sample Activity inhibition rate (%)=[(Absorbance change of control−Absorbance change of sample)/Absorbance change of control]×100

[1] abbreviates: 0.01 wt % in reaction solution, 1.6 units/mL enzyme, 37° C., 2 hours, pH 6.8, read-out: Inhibition rate (%) Concentration 0.01%.
The mark [2] stands for this setting: 0.1 wt % in reaction solution, 1.6 units/mL enzyme, 37° C., 2 hours, pH 6.8, read-out: Inhibition rate (%) Concentration 0.1%.
[3] abbreviates: 1.6 units/mL enzyme, 37° C., 2 hours, pH 6.8.
Where [4] appears, read: 2 h, pH 6.8, read-out: Inhibition rate (%) Concentration 0.01%.
[5] abbreviates: 2 h, pH 6.8, read-out: Inhibition rate (%) Concentration 0.1%.
The mark [6] stands for this setting: 0.01 wt % in reaction solution, 1.6 units/mL enzyme, 37° C., 2 hours, pH 6.8.
[7] abbreviates: 0.1 wt % in reaction solution, 1.6 units/mL enzyme, 37° C., 2 hours, pH 6.8.

Read-outs that look alike come from different tables or passages of the source.

T1 sequence (P05804 whole entry): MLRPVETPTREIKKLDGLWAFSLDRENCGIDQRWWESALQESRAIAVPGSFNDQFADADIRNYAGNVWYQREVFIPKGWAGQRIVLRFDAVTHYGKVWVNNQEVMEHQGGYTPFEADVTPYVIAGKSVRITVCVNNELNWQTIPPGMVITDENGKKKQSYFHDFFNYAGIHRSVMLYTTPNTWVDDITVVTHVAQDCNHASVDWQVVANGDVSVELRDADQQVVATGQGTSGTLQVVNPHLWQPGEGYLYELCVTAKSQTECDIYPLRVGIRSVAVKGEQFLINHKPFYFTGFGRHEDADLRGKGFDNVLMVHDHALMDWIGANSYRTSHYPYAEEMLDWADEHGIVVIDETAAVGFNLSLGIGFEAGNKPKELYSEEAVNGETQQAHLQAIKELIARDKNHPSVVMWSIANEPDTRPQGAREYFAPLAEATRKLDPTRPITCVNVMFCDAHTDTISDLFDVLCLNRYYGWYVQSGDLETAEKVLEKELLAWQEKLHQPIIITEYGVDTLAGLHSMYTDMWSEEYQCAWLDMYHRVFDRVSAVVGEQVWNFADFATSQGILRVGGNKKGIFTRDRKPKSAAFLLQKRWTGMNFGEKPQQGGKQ

Regarding `C=CC(C)(CCC=C(C)C)OC(C)=O` (centres unmarked) [Linalyl acetate, linalyl acetate], the inhibition at 0.01 wt % under setting [1] was found to be 62.6%. In addition, the inhibition at 0.1 wt % under setting [2] was found to be 95.8%.
The corresponding values for `CC1CCCCCCCCCCCCC(=O)C1` (centres unmarked) [3-Methylcyclopentadecanone, 3-methylcyclopentadecanone] are 57.3% and 86.4%.
Turning to `CC(=O)OCC=Cc1ccccc1` [Cinnamyl acetate, cinnamyl acetate], the inhibition at 0.01 wt % under setting [1] came out at 51.3%. For the same molecule, the inhibition at 0.1 wt % under setting [2] was 96.2%.
As for `CC(C)CCOCCc1ccccc1` [Phenylethyl isoamyl ether, phenylethyl isoamyl ether], the inhibition at 0.01 wt % under setting [1] was 60.8%. For the same molecule, the inhibition at 0.1 wt % under setting [2] was 88.8%.
The corresponding values for `CC(C)=CCC/C(C)=C/CO` [Geraniol, geraniol] are 56.8% and 79.8%.
Regarding `O=C/C=C/c1ccccc1` [Cinnamic aldehyde, cinnamic aldehyde], the “Inhibition rate (%) Concentration 0.001%” value under setting [3] stood at 46.4%. For the same molecule, the inhibition at 0.01 wt % under setting [4] was 96.8%. Further, the inhibition at 0.1 wt % under setting [5] turned out to be 100%.
As for `COc1ccc(C=O)cc1` [Anisaldehyde, anisaldehyde], the inhibition at 0.01 wt % under setting [4] is 15.3%. Further, the inhibition at 0.1 wt % under setting [5] was found to be 85.9%.
For the molecule `CCC12CCC3C(C)(C)CCCC3(C)C1CCO2` (stereo not drawn) [Grisalva, 6,6,9α-trimethyl-3α-ethyldodecahydronaphtho[2,1-b]furan], under setting [6], the “Inhibition rate (%) Concentration 0.01%” value came to 50.4%. Further, the “Inhibition rate (%) Concentration 0.1%” value under setting [7] is on record as 77.3%.
For the molecule `CCC=CCCC=CC=O` [2,6-Nonadienal, 2,6-nonadienal], under setting [1], the inhibition at 0.01 wt % worked out at 60.9%. Besides, under setting [2], the inhibition at 0.1 wt % was found to be 95.2%.
Turning to `O=C1CCC=CCCCCCCCCCC1` [4-Cyclopentadecen-1-one, 4-cyclopentadecen-1-one], the “Inhibition rate (%) Concentration 0.001%” value under setting [3] came to 67.2%. Moreover, under setting [1], the inhibition at 0.01 wt % was 93.5%. The inhibition at 0.1 wt % under setting [2] was determined as 99.1%.
For `CC(=O)/C=C/C1=C(C)CCCC1(C)C` [β-Ionone, β-ionone], under setting [6], the “Inhibition rate (%) Concentration 0.01%” value turned out to be 40.2%. Moreover, under setting [7], the “Inhibition rate (%) Concentration 0.1%” value came to 81.1%.
As for `CC(C=O)Cc1ccc(C(C)(C)C)cc1` (centres unmarked) [Lilial, 2-methyl-3-(4-tert-butylphenyl)-propanal], under setting [1], the inhibition at 0.01 wt % was 60.9%. Further, the inhibition at 0.1 wt % under setting [2] worked out at 72.3%.
Regarding 3-methyl-4(5)-cyclopentadecen-1-one, the “Inhibition rate (%) Concentration 0.001%” value under setting [3] worked out at 92.4%. Besides, under setting [6], the “Inhibition rate (%) Concentration 0.01%” value is on record as 99.1%. Also, the “Inhibition rate (%) Concentration 0.1%” value under setting [7] was determined as 98.8%.
The corresponding values for `CC(C=O)Cc1ccc(C(C)C)cc1` (centres unmarked) [Cyclamen aldehyde, cyclamen aldehyde] are 27.4%, 82.7% and 87.5%.
The corresponding values for `CC/C=C\CC1=C(C)CCC1=O` [cis-Jasmone, cis-jasmone] are 24.8%, 77.2% and 99.2%.
Consider `CC(C)=CCCC1=CCC(C=O)CC1` (centres unmarked) [Myrac aldehyde, 4-(4-methyl-3-pentenyl)-3-cyclohexene-1-carboxyaldehyde], for which the “Inhibition rate (%) Concentration 0.01%” value under setting [6] was 49.7%. Further, the “Inhibition rate (%) Concentration 0.1%” value under setting [7] stood at 63.7%.
On to `CC(C)c1ccc(C=O)cc1` [Cuminaldehyde, cuminaldehyde], for which, under setting [1], the inhibition at 0.01 wt % was 37.8%. The inhibition at 0.1 wt % under setting [2] amounted to 97.1%.
Regarding `O=CCCC=C1CC2CC1C1CCCC21` (centres unmarked) [Dupical, 4-(tricyclo[5.2.1.0^2,6]decylidene-8)butenal], under setting [6], the “Inhibition rate (%) Concentration 0.01%” value was 65.5%. Besides, under setting [7], the “Inhibition rate (%) Concentration 0.1%” value amounted to 73.5%.
Take `CC(=O)/C(C)=C/C1C(C)=CCCC1(C)C` (centres unmarked) [γ-Methylionone, γ-methylionone]: the “Inhibition rate (%) Concentration 0.001%” value under setting [3] was determined as 22.0%. Under setting [6], the “Inhibition rate (%) Concentration 0.01%” value worked out at 84.1%. Under setting [7], the “Inhibition rate (%) Concentration 0.1%” value is reported as 98.5%.
`CCCCCC1=CCCC1=O` [2-Pentylcyclopentenone, 2-pentylcyclopentenone]: the “Inhibition rate (%) Concentration 0.01%” value under setting [6] is 93.3%. For the same molecule, under setting [7], the “Inhibition rate (%) Concentration 0.1%” value came to 97.8%.
Consider `O=C1CCCCCCCCCOCCCCCO1` [11-Oxa-16-hexadecanolide, 11-oxa-16-hexadecanolide], for which the inhibition at 0.01 wt % under setting [1] is 26.8%. Moreover, the inhibition at 0.1 wt % under setting [2] was 62.8%.
The corresponding values for `COC1CCCCCCCCCCC1` [Palisandin, 1-methoxycyclododecane] are 53.3% and 85%.
With `C=CCc1ccc(OC)cc1` [Estragole, estragole], under setting [1], the inhibition at 0.01 wt % stood at 94.6%. Also, under setting [2], the inhibition at 0.1 wt % came out at 99.4%.
Consider `C=CCc1ccc(O)c(OC)c1` [Eugenol, eugenol], for which the inhibition at 0.01 wt % under setting [1] is 36.8%. In addition, under setting [2], the inhibition at 0.1 wt % is 93.2%.
Take `CCCCCCC#CC(=O)OC` [Methyl-2-nonynoate, methyl-2-nonynoate]: the inhibition at 0.01 wt % under setting [1] turned out to be 95.3%. For the same molecule, the inhibition at 0.1 wt % under setting [2] stood at 98.2%.
For `CC1=CCCC2(C)OC2CCC(C)=CCC1` (centres unmarked) [Cedroxide, 4,8,12-trimethyl-13-oxabicyclo-[10.1.0]trideca-4,8-diene] the same measures were 40.1% and 82.6%.
For `C=C(C)[C@@H]1CCC2=CC(=O)C[C@@H](C)[C@]2(C)C1` [Nootkatone, nootkatone] the same measures were 80.8% and 95.2%.
vetiverol: under setting [6], the “Inhibition rate (%) Concentration 0.01%” value came out at 88.0%. The “Inhibition rate (%) Concentration 0.1%” value under setting [7] is on record as 97.1%.
In the case of `CCOc1cc(C=O)ccc1O` [Ethylvanillin, ethylvanillin], the inhibition at 0.01 wt % under setting [4] is 38.5%. Further, the inhibition at 0.1 wt % under setting [5] is 78.5%.
For `CC(C)=CCC/C(C)=C\CO` [Nerol, nerol], under setting [1], the inhibition at 0.01 wt % was found to be 44%. The inhibition at 0.1 wt % under setting [2] is 85.7%.
In the case of `CC(C)=CCCC(C)CCO` (centres unmarked) [Citronellol, citronellol], the inhibition at 0.01 wt % under setting [1] was determined as 47.4%. Also, under setting [2], the inhibition at 0.1 wt % is 76.2%.
The corresponding values for `COC1(C)CCCCCCCCCCC1` [Madrox, 1-methyl-1-methoxycyclododecane] are 60.9% and 92.4%.
For `C/C=C\C(=O)C1C(C)=CCCC1(C)C` (stereo not drawn) [α-Damascone, α-damascone], the “Inhibition rate (%) Concentration 0.01%” value under setting [6] was found to be 42.6%. Besides, the “Inhibition rate (%) Concentration 0.1%” value under setting [7] is listed as 89.9%.
The corresponding values for `O=C1CCC=CCCCCCCCCCCO1` [4(5)-Cyclopentadecenolide, 4(5)-cyclopentadecenolide] are 47.1% and 76.5%.
Turning to `CC(CCO)CCc1ccccc1` (centres unmarked) [Phenylhexanol, 3-methyl-5-phenyl-1-pentanol], the inhibition at 0.01 wt % under setting [1] stood at 52.1%. Further, the inhibition at 0.1 wt % under setting [2] worked out at 61.2%.
In the case of `CC(=O)/C=C/C1C(C)=CCCC1(C)C` (stereo not drawn) [α-Ionone, α-ionone], under setting [6], the “Inhibition rate (%) Concentration 0.01%” value was determined as 43.3%. The “Inhibition rate (%) Concentration 0.1%” value under setting [7] was determined as 91.8%.
For `CC(C)(O)CCCC1=CCC(C=O)CC1` (centres unmarked) [Lyral, 4-(4-hydroxy-4-methylpentyl)-3-cyclohexene-1-carboxyaldehyde], the inhibition at 0.01 wt % under setting [1] is 51.6%. Moreover, under setting [2], the inhibition at 0.1 wt % stood at 94.4%.

The values above are taken from patent US9200269B2, “β-glucuronidase inhibitor” (priority 2007, dated 2015).
